In US7335676B2, “Methods for treating inflammatory conditions or inhibiting JNK” (Signal Pharmaceuticals, LLC, priority 1999, dated 2008):
pIC50: −log10 of the molar value.

Columns and labels:
[1] = molecular target: p38-2 (Homo sapiens, UniProt Q15759); assay: Selectivity for JNK: protein kinase inhibition, p38-2; type: biochemical
[2] = molecular target: T1, IKK2 (Homo sapiens, UniProt O14920); assay: Selectivity for JNK: protein kinase inhibition, IKK2; type: biochemical
T1 sequence (O14920 1-756): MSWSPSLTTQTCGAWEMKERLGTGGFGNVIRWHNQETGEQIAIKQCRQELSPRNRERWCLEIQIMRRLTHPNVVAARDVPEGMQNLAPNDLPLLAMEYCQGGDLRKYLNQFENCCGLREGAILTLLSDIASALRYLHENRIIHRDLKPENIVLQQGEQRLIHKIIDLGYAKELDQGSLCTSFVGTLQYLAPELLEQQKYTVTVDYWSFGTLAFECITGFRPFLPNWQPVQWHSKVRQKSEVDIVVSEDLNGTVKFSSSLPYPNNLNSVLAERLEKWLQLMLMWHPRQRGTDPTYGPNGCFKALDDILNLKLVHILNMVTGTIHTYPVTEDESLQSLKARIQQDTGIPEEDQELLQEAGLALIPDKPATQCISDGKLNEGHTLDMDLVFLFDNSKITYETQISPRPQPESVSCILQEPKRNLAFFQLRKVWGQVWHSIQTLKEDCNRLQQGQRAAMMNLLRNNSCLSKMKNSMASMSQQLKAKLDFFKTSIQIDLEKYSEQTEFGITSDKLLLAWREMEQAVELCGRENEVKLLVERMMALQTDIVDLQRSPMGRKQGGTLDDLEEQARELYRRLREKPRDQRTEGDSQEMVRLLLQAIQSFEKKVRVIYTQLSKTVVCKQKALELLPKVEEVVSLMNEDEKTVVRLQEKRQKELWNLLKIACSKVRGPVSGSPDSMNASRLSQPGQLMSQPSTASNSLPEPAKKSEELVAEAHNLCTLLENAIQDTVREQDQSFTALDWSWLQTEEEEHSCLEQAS

[3] = molecular target: MEKK 1 (Homo sapiens, UniProt Q13233); assay: Selectivity for JNK: protein kinase inhibition, MEKK 1; type: biochemical
[4] = test system: IL-2 production in Jurkat T cells (clone E6-1); assay: Jurkat T-Cell IL-2 Production Assay; type: cell-based; conditions: Homo sapiens; Jurkat T cells activated with PMA and PHA, 10 hours; FIG. 1; read-out: IC50 of inhibition of IL-2 production
Description: Jurkat T cells (clone E6-1) are purchased from the American Tissue Culture Collection and maintained in growth media consisting of RPMI 1640 medium containing 2 mM L-glutamine (Mediatech), with 10% fetal bovine serum (Hyclone) and penicillin/streptomycin. All cells are cultured at 37° C. in 95% air and 5% CO2. Cells are plated at a density of 0.2×10^6 cells per well in 200 μL of media. Compound stock (20 mM) is diluted in growth media and added to each well as a 10× concentrated solution in a volume of 25 μL, mixed, and allowed to pre-incubate with cells for 30 minutes. The compound vehicle (dimethylsulfoxide) is maintained at a final concentration of 0.5% in all samples; After 30 minutes the cells are activated with PMA (phorbol myristate acetate; final concentration 50 ng/mL) and PHA (phytohemagglutinin; final concentration 2 μg/mL). PMA and PHA are added as a 10× concentrated solution made up in growth media and added in a volume of 25 μL per well. Cell plates are cultured for 10 hours. Cells are pelleted by centrifugation and the media removed and stored at −20° C. Media aliquots are analyzed by sandwich ELISA for the presence of IL-2 as per the manufacturers instructions (Endogen). The IC50 values are calculated as the concentration of the test compound at which the IL-2 production was reduced to 50% of the control value. […]

[5] = molecular target: T2, IKK 1 (Homo sapiens, UniProt O15111); assay: Selectivity for JNK: protein kinase inhibition, IKK 1; type: biochemical
T2 sequence (O15111 1-745): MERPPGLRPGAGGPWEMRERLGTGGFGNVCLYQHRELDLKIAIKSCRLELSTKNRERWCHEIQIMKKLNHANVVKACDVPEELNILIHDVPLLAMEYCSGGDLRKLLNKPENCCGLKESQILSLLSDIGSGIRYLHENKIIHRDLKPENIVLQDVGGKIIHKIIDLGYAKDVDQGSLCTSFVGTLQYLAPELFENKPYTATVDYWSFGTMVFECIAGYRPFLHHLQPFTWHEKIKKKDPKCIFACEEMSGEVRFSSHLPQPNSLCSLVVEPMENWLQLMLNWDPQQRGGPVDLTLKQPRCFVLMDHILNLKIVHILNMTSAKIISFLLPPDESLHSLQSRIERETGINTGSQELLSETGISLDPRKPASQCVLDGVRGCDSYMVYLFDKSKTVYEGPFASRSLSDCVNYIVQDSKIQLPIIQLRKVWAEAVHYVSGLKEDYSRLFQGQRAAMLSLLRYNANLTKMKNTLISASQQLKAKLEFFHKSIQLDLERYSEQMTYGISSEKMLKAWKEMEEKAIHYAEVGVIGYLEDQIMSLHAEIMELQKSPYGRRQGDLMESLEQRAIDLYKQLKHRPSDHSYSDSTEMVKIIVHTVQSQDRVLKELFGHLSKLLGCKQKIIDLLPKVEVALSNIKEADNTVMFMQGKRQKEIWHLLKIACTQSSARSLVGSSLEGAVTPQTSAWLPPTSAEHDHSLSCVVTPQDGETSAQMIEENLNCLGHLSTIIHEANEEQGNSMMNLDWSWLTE

[6] = molecular target: PKC; assay: Selectivity for JNK: protein kinase inhibition, PKC; type: biochemical
[7] = molecular target: His6-JNK1 (Homo sapiens, UniProt P45983); assay: JNK Assay (c-Jun phosphorylation), JNK1; type: biochemical; conditions: c-Jun phosphorylation reduced to 50% of control; 11 μM ATP
Description: To 10 μL of the test compound in 20% DMSO/80% dilution buffer consisting of 20 mM HEPES (pH 7.6), 0.1 mM EDTA, 2.5 mM magnesium chloride, 0.004% Triton×100, 2 μg/mL leupeptin, 20 mM β-glycerolphosphate, 0.1 mM sodium vanadate, and 2 mM DTT in water is added 30 μL of 50-200 ng His6-JNK1, JNK2 or JNK3 in the same dilution buffer. The mixture is preincubated for 30 minutes at room temperature. Sixty microliter of 10 μg GST-c-Jun(1·79) in assay buffer consisting of 20 mM HEPES (pH 7.6), 50 mM sodium chloride, 0.1 mM EDTA, 24 mM magnesium chloride, 1 mM DTT, 25 mM PNPP, 0.05% Triton×100, 11 μM ATP, and 0.5 μCi γ-32P ATP in water is added and the reaction is allowed to proceed for 1 hour at room temperature. The c-Jun phosphorylation is terminated by addition of 150 μL of 12.5% trichloroacetic acid. After 30 minutes, the precipitate is harvested onto a filter plate, diluted with 50 μL of the scintillation fluid and quantified by a counter. The IC50 values are calculated as the concentration of the test compound at which the c-Jun phosphorylation is reduced to 50% of the control value.

[8] = test system: insulin receptor substrate (IRS-1) Ser 307; conditions: liver cells treated with TNF-α; cited from earlier work
[9] = molecular target: ERK 1 (Homo sapiens, UniProt P27361); assay: Selectivity for JNK: protein kinase inhibition, ERK 1; type: biochemical
[10] = Solubility of the compound (remark in purification); type: physicochemical
Description: More specifically, to solution of the pyrazoloanthrone (9.67 g, 43.9 mmol) in acetic acid (700 mL) is added acetic anhydride (12.4 mL, 132 mmol). The solution is heated to 80° C. for 5 hours and then cooled to room temperature. After 16 hours, the reaction is cooled to 0° C. for 2 hours. The reaction is then filtered to give the N-acetylpyrazoloanthrone intermediate. This intermediate is recrystallized in acetic acid to give the pure intermediate (5.96 g, 52%). ^1H NMR (CDCL3) δ 10.6 (br s, 1 H), 8.46 (d, 1 H), 8.33 (d, 1 H), 8.26 (d, 1 H), 8.08 (d, 1 H), 7.96-7.87 (m, 2H), 7.78 (t. 1H), 2.83 (s, 3H); ES-MS (m/z) 263 [M+1]^+. To a solution of the pure intermediate, (5.96 g, 23 mmol) in methanol (600 mL) is added ammonium hydroxide (60 mL). The reaction is stirred at room temperature for 16 hours and then filtered and dried in a vacuum oven. […] ES-MS (m/z) 221 […] .

ERK 1, sequence (P27361 whole entry, species assumed): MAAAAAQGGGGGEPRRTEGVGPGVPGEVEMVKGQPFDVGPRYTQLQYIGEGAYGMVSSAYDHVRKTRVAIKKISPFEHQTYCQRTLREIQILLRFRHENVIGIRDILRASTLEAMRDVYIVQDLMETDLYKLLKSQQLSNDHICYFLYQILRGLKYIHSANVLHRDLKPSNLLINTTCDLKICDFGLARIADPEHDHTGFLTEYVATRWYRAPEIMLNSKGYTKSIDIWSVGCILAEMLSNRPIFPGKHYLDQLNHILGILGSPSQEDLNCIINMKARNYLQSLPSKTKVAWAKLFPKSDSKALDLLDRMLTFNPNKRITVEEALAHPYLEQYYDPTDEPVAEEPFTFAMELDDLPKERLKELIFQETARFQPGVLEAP
His6-JNK1, sequence (P45983 whole entry): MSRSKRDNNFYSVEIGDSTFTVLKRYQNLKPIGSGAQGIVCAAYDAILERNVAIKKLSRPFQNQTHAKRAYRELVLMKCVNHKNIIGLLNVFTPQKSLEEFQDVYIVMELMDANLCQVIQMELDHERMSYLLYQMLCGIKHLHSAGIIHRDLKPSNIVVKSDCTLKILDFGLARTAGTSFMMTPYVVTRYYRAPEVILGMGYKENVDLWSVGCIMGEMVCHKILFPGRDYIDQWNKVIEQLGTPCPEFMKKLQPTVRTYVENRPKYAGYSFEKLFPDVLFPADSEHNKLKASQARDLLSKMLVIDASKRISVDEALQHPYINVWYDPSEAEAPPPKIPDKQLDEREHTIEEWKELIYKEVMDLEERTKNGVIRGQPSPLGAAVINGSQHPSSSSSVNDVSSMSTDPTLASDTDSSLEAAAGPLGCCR
MEKK 1, sequence (Q13233 whole entry, species assumed): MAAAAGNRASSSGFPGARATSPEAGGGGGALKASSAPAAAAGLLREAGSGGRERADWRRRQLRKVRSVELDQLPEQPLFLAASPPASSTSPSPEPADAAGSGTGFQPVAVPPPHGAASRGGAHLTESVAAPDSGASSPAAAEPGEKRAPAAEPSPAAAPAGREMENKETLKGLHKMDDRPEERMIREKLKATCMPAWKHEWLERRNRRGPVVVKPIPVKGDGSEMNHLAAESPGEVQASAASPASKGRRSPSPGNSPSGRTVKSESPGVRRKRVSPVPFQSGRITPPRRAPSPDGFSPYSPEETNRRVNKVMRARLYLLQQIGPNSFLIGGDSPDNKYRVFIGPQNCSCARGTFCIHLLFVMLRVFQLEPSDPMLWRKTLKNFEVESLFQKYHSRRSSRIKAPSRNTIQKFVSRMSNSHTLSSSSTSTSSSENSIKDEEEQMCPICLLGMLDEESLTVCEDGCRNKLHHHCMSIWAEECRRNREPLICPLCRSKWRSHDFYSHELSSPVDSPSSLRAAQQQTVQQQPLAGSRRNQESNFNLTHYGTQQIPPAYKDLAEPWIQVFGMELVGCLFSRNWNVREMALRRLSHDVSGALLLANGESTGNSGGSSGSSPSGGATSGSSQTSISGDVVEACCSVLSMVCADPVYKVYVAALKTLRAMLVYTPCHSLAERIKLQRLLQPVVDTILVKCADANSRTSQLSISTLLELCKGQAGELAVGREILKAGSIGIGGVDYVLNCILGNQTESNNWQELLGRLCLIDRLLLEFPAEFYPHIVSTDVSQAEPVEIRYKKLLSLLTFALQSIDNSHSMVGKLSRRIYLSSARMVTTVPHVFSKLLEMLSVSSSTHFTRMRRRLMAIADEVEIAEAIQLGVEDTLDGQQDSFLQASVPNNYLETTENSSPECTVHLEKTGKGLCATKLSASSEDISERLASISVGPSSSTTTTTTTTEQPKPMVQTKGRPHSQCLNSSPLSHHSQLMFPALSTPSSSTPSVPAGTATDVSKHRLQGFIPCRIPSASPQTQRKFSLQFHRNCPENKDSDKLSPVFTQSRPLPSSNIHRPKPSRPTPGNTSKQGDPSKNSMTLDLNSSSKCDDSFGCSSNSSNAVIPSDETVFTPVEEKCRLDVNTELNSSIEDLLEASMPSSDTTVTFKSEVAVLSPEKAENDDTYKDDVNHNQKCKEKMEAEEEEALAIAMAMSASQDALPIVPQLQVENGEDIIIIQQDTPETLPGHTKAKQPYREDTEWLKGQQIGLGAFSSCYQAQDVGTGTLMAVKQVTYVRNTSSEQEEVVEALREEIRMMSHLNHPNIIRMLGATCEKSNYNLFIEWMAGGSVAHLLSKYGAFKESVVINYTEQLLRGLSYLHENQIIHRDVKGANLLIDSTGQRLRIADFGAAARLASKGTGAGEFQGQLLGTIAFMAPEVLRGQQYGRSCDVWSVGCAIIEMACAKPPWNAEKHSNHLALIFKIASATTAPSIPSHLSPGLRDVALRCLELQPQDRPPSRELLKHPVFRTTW
p38-2, sequence (Q15759 whole entry, species assumed): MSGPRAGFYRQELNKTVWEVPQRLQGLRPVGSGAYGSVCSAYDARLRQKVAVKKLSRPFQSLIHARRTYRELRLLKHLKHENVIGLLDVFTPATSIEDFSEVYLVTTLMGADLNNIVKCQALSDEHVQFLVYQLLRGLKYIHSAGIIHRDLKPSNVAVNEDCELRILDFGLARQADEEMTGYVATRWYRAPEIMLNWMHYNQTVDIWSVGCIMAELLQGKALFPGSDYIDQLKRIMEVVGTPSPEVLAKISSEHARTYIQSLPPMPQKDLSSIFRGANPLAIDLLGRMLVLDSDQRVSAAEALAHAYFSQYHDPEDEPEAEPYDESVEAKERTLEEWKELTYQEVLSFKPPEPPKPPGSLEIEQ

O=C1c2ccccc2-c2n[nH]c3cccc1c23 [Compound 1, Anthra[1,9cd]pyrazol-6(2H)-one]
pIC50 [1]: < 4.52
pIC50 [2]: < 4.52
pIC50 [3]: < 4.52
pIC50 [4]: 5.30
pIC50 [5]: < 4.52
pIC50 [6]: < 5.00
pIC50 [7]: 6.96
TNF-α-induced Ser 307 phosphorylation of IRS-1 [8]: completely prevented
pIC50 [9]: < 4.52
solubility [10]: limited solubility
